Reference: a melting point compilation (Tetko et al.)

SMILES	melting point
CN1CCN(C(=O)c2ccccc2N)CC1	74 to 76 °C
Cc1ccc(-c2nn(Cc3ccccc3)cc2C(=O)O)cc1C	155 to 157 °C
CCC(CC)CS(N)(=O)=O	33 to 35 °C
CCNS(=O)(=O)c1ccc(Br)c(C(=O)O)c1	198 to 200 °C
COc1ccc(N2CCCNC(=O)C2)cc1	172 to 174 °C
COC(=O)Cc1csc(N)n1	123 to 125 °C
NC(=O)N1CCC(=O)CC1	137 to 139 °C
NNC(=O)c1cccc2ncccc12	130 to 132 °C
COCCOc1ccc(C(C)=O)cc1	38 to 40 °C
CC(C)(C)OC(=O)NC(C(N)=NO)c1ccccc1OC(F)(F)F (centres undefined)	119 to 121 °C
Fc1ccc2c(Cl)ncnc2c1	90 to 92 °C
N#Cc1cc(N)ncc1Br	184 to 186 °C
Cc1ccc2c(n1)OCCN2	109 to 111 °C
Cc1sc2nc(CC#N)[nH]c(=O)c2c1C	283 to 285 °C
NS(=O)(=O)c1c(Br)cc(F)cc1Br	174 to 176 °C
CC(O)c1cc[nH]n1 (centres undefined)	58 to 60 °C
CC(C)(C)c1ccc(CC(=O)O)cc1	76 to 78 °C
CSc1cc(N)ccn1	79 to 81 °C
Oc1cccc(CNC2CC2)c1	125 to 127 °C
CNC(=O)NC(C)(C)C(=O)O	139 to 141 °C
CCOC(=O)c1cnn(CCC#N)c1N	109 to 111 °C
CN(C)c1cccc(Cl)c1C=O	26 to 28 °C
Cc1nc(-c2ccc(Br)cc2Cl)n[nH]1	179 to 181 °C
Cn1cc(S(=O)(=O)Cl)cn1	48 to 50 °C
CC(C)(C)C(Br)C(=O)O (centres undefined)	62 to 64 °C

SMILES	melting point
NNC(=O)c1n[nH]c2c1CCCC2	176 to 178 °C
COC(=O)c1cc(C=O)c[nH]1	124 to 126 °C
Cn1cc(N2CCNCC2=O)cn1	123 to 125 °C
COC(=O)c1ccccc1S(=O)(=O)Nc1ccccc1Cl	97 to 99 °C
O=C1CC(NC(=O)C(F)(F)F)c2ccsc21 (centres undefined)	133 to 135 °C
Cc1nc(N2CCCCC2)sc1C=O	113 to 115 °C
N#Cc1ccc(Oc2ccccc2O)c(F)c1	97 to 99 °C
OCCc1c[nH]nc1C(F)(F)F	90 to 92 °C
Nc1nc2c(Br)cc(OC(F)(F)F)cc2s1	202 to 204 °C
Cc1nn(-c2ccccc2)c(N2CCCCC2)c1C=O	75 to 77 °C
CN1CCC(C)(O)CC1	62 to 64 °C
O=C1CCc2cc(Br)c(F)cc2N1	210 to 212 °C
CCCN1CCc2c(sc(N)c2C(N)=O)C1	139 to 141 °C
CC(N)c1nc(-c2ccc(Br)cc2)cs1 (centres undefined)	77 to 79 °C
O=C(O)CSc1nccn1-c1ccc(Br)cc1	203 to 205 °C
Cc1cc(F)cc(C(=O)O)c1[N+](=O)[O-]	161 to 163 °C
COc1ccc(C(=O)c2ccccc2Cl)cc1	77 to 79 °C
COc1ccc(N)cc1OCC(F)(F)F	154 to 156 °C
Cc1nn(C)c(C)c1C(=O)C(N)=O	182 to 184 °C
CN(C)c1ccc(C(N)=NO)cc1	169 to 171 °C
NC(=O)Cn1cc(NC(=O)OCC(F)(F)F)cn1	150 to 152 °C
O=C1CCc2ccccc2CN1	124 to 126 °C
NS(=O)(=O)Cc1ccccc1Cl	104 to 106 °C
CCS(=O)(=O)N(C)CC(=O)O	70 to 72 °C
O=[N+]([O-])c1n[nH]cc1S(=O)(=O)Cl	154 to 156 °C

SMILES	melting point
COc1cc(C=O)cc(O)c1O	131 to 134 °C
CCNC(=O)c1ccccc1N	93 to 95 °C
CCc1ccc(C(=O)c2ccc(N)cc2)o1	124 to 126 °C
Cc1nc(O)c2c(n1)CCCC2	206 to 208 °C
NC(=O)C1NCCc2ccccc21 (centres undefined)	180 to 182 °C
O=C(O)CCOc1ccccc1Cl	115 to 117 °C
Cc1occc1-c1nnc(S)n1-c1ccccc1	234 to 236 °C
CN1CCN(c2cc(CN)ccn2)CC1	72 to 74 °C
O=C(O)CN1CCN(C(=O)OCc2ccccc2)CC1	142 to 144 °C
COc1ccc(S(=O)(=O)N2CCOCC2)cc1NC(=O)CCl	180 to 182 °C
O=C(CCCl)Nc1ccc2c(c1)OCO2	142 to 144 °C
CN(C)C=C(C#N)S(C)(=O)=O	129 to 131 °C
CC(Cl)c1nnc(-c2ccc(Cl)c(Cl)c2)o1 (centres undefined)	93 to 95 °C
Cc1ccc(-c2csc(NCCCC(=O)O)n2)s1	110 to 112 °C
O=C(O)c1ccc(NS(=O)(=O)c2ccc(Br)s2)cc1	254 to 256 °C
COc1ccc(S(=O)(=O)Cl)c(OC)c1C(=O)O	129 to 131 °C
CCc1nc2ccccc2n1CC#N	104 to 106 °C
O=C(O)c1c[nH]c(C(=O)N2CCCC2)c1	264 to 266 °C
COc1ccc(Oc2ncccc2N)cc1	149 to 151 °C
COc1ccc(OC)c(C(C)NC(=O)CCl)c1 (centres undefined)	103 to 105 °C
CNc1ccccc1C#N	66 to 68 °C
COc1cc2nc(N)sc2cc1OC	224 to 226 °C
CCCN1C(=O)C(=O)c2cc(Br)ccc21	129 to 131 °C
Cc1cccc(C2(C(F)(F)F)CCCN2)c1C (centres undefined)	45 to 47 °C
